As a reminder, the T/C is the result in the treated group divided by that in the control group, in per cent. As usually defined, the TGI is the reduction of tumour growth relative to the control group. Higher therefore signals a stronger effect on the tumour.

Square brackets hold non-standard residues; d marks the D form. Peptide text beside a SMILES is read from it. * marks the point of attachment. Dolaproine = CO[C@@H]([C@@H]1CCCN1)[C@@H](C)C(=O)O; Dil = CC[C@H](C)[C@H](NC)[C@@H](CC(=O)O)OC; X1 = C[C@@H](N*)[C@@H](O)c1ccccc1; NMeV = CN[C@H](C(=O)O)C(C)C

Ten compounds from patent publication US20250186592A1, “TETRAZINE CONJUGATES FOR IN VIVO TARGETED DELIVERY OF A PAYLOAD” (Tambo, Inc., priority 2021, published 2025) can be followed below.

Assay [1] can be described thus: LCMS analysis of drug release by tetrazines. Conditions: tetrazine 20 μM, TCO-MMAE 10 μM in PBS. As for the experimental part:
A solution of each tetrazine (20 μM final concentration) in PBS is mixed with TCO-MMAE (10 μM final concentration). The solution is mixed thoroughly and an aliquot removed at the appropriate time for analysis by LCMS.

Assay [2] concerns NCI-N87 xenograft. The assay can be described thus: Efficacy study in subcutaneous NCI-N87 xenograft model in CB17 SCID mice. It is filed as in vivo, mice (Mus musculus). Conditions: for TGI: P<0.05 vs vehicle; for mean tumor size on day 35: vehicle 1009 mm^3. On the procedure:
Methods: 110 CB17 SCID female mice (Mus musculus; age: 6-8 weeks; body weight: 18-22 g; Shanghai LingChang Biotech Co., LTD) were inoculated subcutaneously at right flank with NCI-N87 cells (3×10^6 cells was suspended in 0.2 mL mixture of 1640 with (1640: Matrigel=1:1) BD Matrigel for tumor development). After 7 days inoculation, 70 animals were divided into 8 groups with 10 animals in group 1, 2, 5, 6, 7 and 8, and with 5 animals in group 3 and 4 using stratified random grouping based on their body weight and tumor volume. The treatments were started from the mean tumor size reached to 158 mm^3 (106-221 mm^3) for these 70 mice. Group 1: Vehicle, i.v., QD×3×2 weeks. Group 2: MMAE, 0.25 mpk, i.v., QW×2 weeks. […] Group 4: Compound A, 20 mpk, i.v., QD×3×2 weeks. […] Group 7: SQL70, 100 μL, i.t.×1 dose+Compound A, 1.9 mpk, i.v., QD×5. Group 8: T-DM1, 3 mpk, i.v., QW×2 weeks. The tumor sizes and body weight were measured twice a week during the treatment. The dosing schedule was finished on day PG-D10. The entire study was terminated on PG-D37 and collected all the tumor samples for group 5 and 6, and 3 tumors/group for group 1 and 2.
Experimental Methods and Procedures: Cell preparation and implantation: The NCI-N87 (Gastric carcinoma, ATCC® CRL-5822™, Lot No. 7686255) cells were maintained in vitro as a monolayer culture in RPMI-1640 medium supplemented with 10% heat inactivated fetal bovine serum, 100 U/mL penicillin and 100 μg/mL streptomycin at 37° C. in an atmosphere of 5% CO2 in air. The tumor cells were routinely sub-cultured per 5 days by trypsin-EDTA treatment. The cultured NCI-N87 cells were harvested, re-suspended in base medium at a density of 1.5×10^7 cells/mL with viability >90%. Each mouse was inoculated subcutaneously at the right flank with 3×10^6 in 0.2 mL mixture of 1640 with (1640: Matrigel=1:1) BD Matrigel for tumor development.
Randomization and administration: The treatments were started from the mice were grouped based on their mean tumor size reached 158 mm^3 (106-221 mm^3) for group 1-8. Each group consisted of 10 or 5 mice. The test article was administrated to the mice according to the regimen as shown in the experimental design table (Table 4).
Tumor Measurements and Endpoints: The major endpoint is to see if the tumor growth can be delayed or mice can be cured. […] The tumor sizes were then used for the calculations of both tumor growth inhibition (TGI) values.
The T/C value (in percent) is an indication of antitumor effectiveness, T/C (%)=RTVTreatment/RTVControl×100% (RTVTreatment: the mean RTV of the treatment group; RTVControl: the mean RTV of the vehicle treated group). RTV (relative tumor volume)=TVDayN/TVDay0. TVDayN and TVDay0 is the tumor volume on day N and Day 0 respectively. T/C (%)≤42% is considered as significant antitumor activity and <10% is considered as highly significant antitumor activity by the United States National Cancer Institute criteria.
Statistical Analysis: The tumor volume between different groups was analyzed by two-way repeated measures ANOVA followed by the Tukey's post hoc test. All data were analyzed using GraphPad Prism 6.0. P<0.05 is considered to be statistically significant.

The mark [3] stands for this setting: Group 4: Compound A 20 mpk i.v. QD×3×2 weeks, day 35.
Where [4] appears, read: Group 2: MMAE 0.25 mpk i.v. QW×2 weeks, day 35.

`Cc1nnc(-c2ncccn2)nn1`: in assay [1], the “% TCO-MMAE consumed (1 h)” value was 100% and the “% MMAE released (24 h)” value was 29%.

With `Cc1nnc(-c2cn(C)cn2)nn1`, in assay [1], the “% TCO-MMAE consumed (1 h)” value is listed as 74% and the “% MMAE released (24 h)” value is 40%.

Take `Cc1nnc(-c2cocn2)nn1`: in assay [1], the “% TCO-MMAE consumed (1 h)” value worked out at 42% and the “% MMAE released (24 h)” value is listed as 62%.

With `Cc1nnc(-c2ccc(C(F)(F)F)c(CN)c2)nn1`, in assay [1], the “% TCO-MMAE consumed (1 h)” value is 100% and the “% MMAE released (24 h)” value is 46%.

As for `Cc1nnc(-c2ccc(CN)c(C(F)(F)F)c2)nn1`, in assay [1], the “% TCO-MMAE consumed (1 h)” value is 100% and the “% MMAE released (24 h)” value is on record as 51%.

Regarding `Cc1nnc(-c2ccccn2)nn1`, in assay [1], the “% TCO-MMAE consumed (1 h)” value turned out to be 100% and the “% MMAE released (24 h)” value amounted to 28%.

Regarding `Cc1nnc(-n2cccn2)nn1`, in assay [1], the “% TCO-MMAE consumed (1 h)” value came to 81% and the “% MMAE released (24 h)” value turned out to be 35%.

In assay [2] (setting [3]), `CC[C@H](C)[C@@H](C(CC(=O)N1CCC[C@H]1[C@H](OC)[C@@H](C)C(=O)N[C@H](C)[C@@H](O)c1ccccc1)OC)N(C)C(=O)[C@@H](NC(=O)[C@H](C(C)C)N(C)C(=O)O[C@H]1/C=C/CC[C@@](C)(C(=O)O)CC1)C(C)C` (stereo partly drawn) [Compound A] had a T/C of 62.12% and a TGI of 41.74%. Further, the “mean tumor size on day 35” value in assay [2] (Group 4: Compound A 20 mpk i.v. QD×3×2 weeks, day 35 after grouping) is 653 mm^3.

As for `CC[C@H](C)[C@@H]([C@@H](CC(=O)N1CCC[C@H]1[C@H](OC)[C@@H](C)C(=O)N[C@H](C)[C@@H](O)c1ccccc1)OC)N(C)C(=O)[C@@H](NC(=O)[C@@H](NC)C(C)C)C(C)C` [MMAE] (H-[NMeV]V[Dil][Dolaproine]-X1), in assay [2] (setting [4]), the T/C was 57.50% and the TGI is recorded as 49.68%. Further, the “mean tumor size on day 35” value in assay [2] (Group 2: MMAE 0.25 mpk i.v. QW×2 weeks, day 35 after grouping) amounted to 586 mm^3.

Take T-DM1: the “mean tumor size on day 35” value in assay [2] (Group 8: T-DM1 3 mpk i.v. QW×2 weeks, day 35) was found to be 873 mm^3.
